What was measured:
[1] = tested on: MES-SA (Other Solid Carcinomas); test: combination Emax (second highest fraction inhibited in the dose matrix, 72 h); higher = more inhibition; extreme values may be limits of the assay
In short: (§1)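 Bliss excess equals the observed combination effect minus the expected value EA + EB − EA·EB, where EA and EB are the effects of each agent alone. Combination Emax is the second-highest inhibition within the matrix. Inhibition was scaled from CellTiter-Glo 2.0 luminescence, with 0 set by vehicle wells and 1 by blank wells, after 72 hours of two-drug dosing of cells plated in 1536-well plates.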

[2] = tested on: SK-UT-1 (Other Solid Carcinomas); test: as above
In short: as §1

H4 (Low Grade Glioma) = test: as above
In short: as §1

[3] = tested on: HOP-92 (Non-Small Cell Lung Carcinoma); test: as above
In short: as §1

[4] = tested on: KG-1 (Acute Myeloid Leukemia); test: as above
In short: as §1

[5] = tested on: SW948 (Colorectal Carcinoma); test: Bliss excess, mean over the matrix (fraction); higher = more synergy
In short: as §1

SK-MEL-1 (Melanoma) = test: as above
In short: as §1

HCC38 (Breast Carcinoma) = test: as above
In short: as §1

HuO9 (Osteosarcoma) = test: as above
In short: as §1

[6] = tested on: ETK-1 (Biliary Tract Carcinoma); test: as above
In short: as §1

[7] = tested on: DOK (Oral Cavity Carcinoma); test: as above
In short: as §1

[8] = tested on: BICR78 (Oral Cavity Carcinoma); test: as above
In short: as §1

[9] = tested on: JHH-6 (Hepatocellular Carcinoma); test: as above
In short: as §1

EW-22 (Ewing's Sarcoma) = test: as above
In short: as §1

[10] = tested on: HOP-92 (Non-Small Cell Lung Carcinoma); test: as above
In short: as §1

CS1 (Chondrosarcoma) = test: as above
In short: as §1

[11] = tested on: PA-TU-8902 (Pancreatic Carcinoma); test: as above
In short: as §1

[12] = tested on: KG-1 (Acute Myeloid Leukemia); test: as above
In short: as §1

[13] = tested on: MEG-01 (Chronic Myelogenous Leukemia); test: as above
In short: as §1

| Compound | combination Emax [1] | combination Emax [2] | combination Emax (H4 (Low Grade Glioma)) | combination Emax [3] | combination Emax [4] | Bliss excess [5] | Bliss excess (SK-MEL-1 (Melanoma)) | Bliss excess (HCC38 (Breast Carcinoma)) | Bliss excess (HuO9 (Osteosarcoma)) | Bliss excess [6] | Bliss excess [7] | Bliss excess [8] | Bliss excess [9] | Bliss excess (EW-22 (Ewing's Sarcoma)) | Bliss excess [10] | Bliss excess (CS1 (Chondrosarcoma)) | Bliss excess [11] | Bliss excess [12] | Bliss excess [13] |
| --- | --- | --- | --- | --- | --- | --- | --- | --- | --- | --- | --- | --- | --- | --- | --- | --- | --- | --- | --- |
| NC1(C(=O)N[C@@H](CCO)c2ccc(Cl)cc2)CCN(c2ncnc3[nH]ccc23)CC1 [Capivasertib] + C[C@@H]1COCCN1C2=NC(=NC(=C2)C3(CC3)[S@](=N)(=O)C)C4=C5C=CNC5=NC=C4 [AZD6738] (first compound max 10 µM, 7x7, partner max 10 µM) | 0.721 | 0.829 | 0.809 | 0.541 | 0.739 | -0.102 | 0.0147 | -0.0366 | -0.0535 | -0.066 | -0.0681 | 0.0163 | -0.0229 | -0.0047 | -0.0518 | -0.0517 | 0.0247 | -0.026 | -0.0464 |
| NC1(C(=O)N[C@@H](CCO)c2ccc(Cl)cc2)CCN(c2ncnc3[nH]ccc23)CC1 [Capivasertib] + Cn1cnc2c(F)c(Nc3ccc(Br)cc3Cl)c(C(=O)NOCCO)cc21 [Selumetinib] (first compound max 10 µM, 7x7, partner max 10 µM) | 0.496 | 0.447 | 0.61 | 0.685 | 0.37 | -0.0554 | 0.0465 | 0.0116 | -0.0116 | 0.0555 | 0.0518 | -0.0016 | -0.0262 | -0.0255 | 0.003 | 0.0373 | 0.0181 | -0.0045 | 0.0548 |
| Cc1nc(Nc2ncc(C(=O)Nc3c(C)cccc3Cl)s2)cc(N2CCN(CCO)CC2)n1 [Dasatinib] + CC(=O)Nc1cccc(-n2c(=O)n(C3CC3)c(=O)c3c(Nc4ccc(I)cc4F)n(C)c(=O)c(C)c32)c1 [Trametinib] (first compound max 2 µM, 7x7, partner max 1 µM) | 0.221 | 0.344 | 0.393 | 0.928 | 0.419 | -0.008 | -0.0852 | -0.0277 | 0.0175 | 0.0226 | 0.0288 | -0.0401 | 0.0847 | -0.0457 | 0.113 | -0.022 | 0.0404 | 0.0659 | 0.0019 |
| COc1cc2ncnc(Nc3ccc(F)c(Cl)c3)c2cc1OCCCN1CCOCC1 [Gefitinib] + CC(C)n1c(=O)n(C)c2cnc3cc(F)c(-c4ccc(OCCCN5CCCCC5)nc4)cc3c21 [AZD1390] (first compound max 10 µM, 7x7, partner max 0.3 µM) | 0.0714 | 0.0993 | 0.121 | 0.229 | 0.182 | -0.0215 | 0.0081 | -0.0485 | -0.058 | -0.11 | -0.0341 | -0.0788 | -0.0603 | -0.0252 | -0.0439 | -0.0466 | -0.0693 | -0.0507 | -0.058 |
| CS(=O)(=O)CCNCc1ccc(-c2ccc3ncnc(Nc4ccc(OCc5cccc(F)c5)c(Cl)c4)c3c2)o1 [Lapatinib] + C[C@@H](Oc1cc(-c2cnn(C3CCNCC3)c2)cnc1N)c1c(Cl)ccc(F)c1Cl [Crizotinib] (first compound max 10 µM, 7x7, partner max 10 µM) | 0.813 | 0.511 | 0.944 | 0.937 | 0.49 | -0.0834 | -0.0827 | -0.0049 | -0.069 | -0.0596 | -0.0302 | 0.0073 | -0.0262 | -0.0241 | -0.0051 | -0.0093 | 0.0068 | -0.0028 | -0.0083 |
| CC(=O)c1c(C)c2cnc(Nc3ccc(N4CCNCC4)cn3)nc2n(C2CCCC2)c1=O [Palbociclib] + CC1(C)CCC(CN2CCN(c3ccc(C(=O)NS(=O)(=O)c4ccc(NCC5CCOCC5)c([N+](=O)[O-])c4)c(Oc4cnc5[nH]ccc5c4)c3)CC2)=C(c2ccc(Cl)cc2)C1 [Venetoclax] (first compound max 10 µM, 7x7, partner max 1 µM) | 0.361 | 0.108 | 0.597 | 0.145 | 0.85 | -0.089 | -0.0353 | -0.0437 | 0.0056 | -0.0207 | -0.0542 | -0.0611 | -0.0461 | 0.0129 | -0.0166 | -0.0457 | -0.029 | 0.0888 | -0.0096 |
| CC(=O)c1c(C)c2cnc(Nc3ccc(N4CCNCC4)cn3)nc2n(C2CCCC2)c1=O [Palbociclib] + Cc1c2c(nn1C)CSCc1cc(n(C)n1)CSc1cc(c3ccccc3c1)OCCCc1c(C(=O)O)n(C)c3c-2c(Cl)ccc13 [AZD5991] (first compound max 10 µM, 7x7, partner max 1 µM) | 0.513 | 0.223 | 0.601 | 0.293 | 0.894 | 0.0058 | -0.0014 | -0.0244 | 0.0088 | -0.0808 | -0.0363 | -0.0375 | -0.0212 | 0.0039 | 0.013 | -0.035 | -0.0469 | -0.0169 | 0.0338 |
| CC(=O)c1c(C)c2cnc(Nc3ccc(N4CCNCC4)cn3)nc2n(C2CCCC2)c1=O [Palbociclib] + Cn1cnc2c(F)c(Nc3ccc(Br)cc3Cl)c(C(=O)NOCCO)cc21 [Selumetinib] (first compound max 10 µM, 7x7, partner max 10 µM) | 0.38 | 0.137 | 0.632 | 0.458 | 0.481 | -0.0078 | -0.0559 | -0.0291 | -0.064 | -0.0351 | 0.0057 | 0.0133 | 0.0291 | -0.0158 | 0.0142 | 0.0219 | 0.0639 | -0.0108 | 0.0404 |
| C[C@@H](c1ccc2nccn2c1)n1nnc2ncc(-c3cnn(C)c3)nc21 [Savolitinib] + CC1(C)CCC(CN2CCN(c3ccc(C(=O)NS(=O)(=O)c4ccc(NCC5CCOCC5)c([N+](=O)[O-])c4)c(Oc4cnc5[nH]ccc5c4)c3)CC2)=C(c2ccc(Cl)cc2)C1 [Venetoclax] (first compound max 1 µM, 7x7, partner max 1 µM) | 0.0576 | 0.149 | 0.218 | 0.201 | 0.38 | -0.0488 | -0.0144 | -0.0111 | -0.0531 | -0.0777 | -0.0578 | -0.0779 | -0.0918 | -0.0281 | -0.0181 | -0.0056 | -0.11 | -0.015 | -0.0223 |
| C[C@@H](c1ccc2nccn2c1)n1nnc2ncc(-c3cnn(C)c3)nc21 [Savolitinib] + Cc1c2c(nn1C)CSCc1cc(n(C)n1)CSc1cc(c3ccccc3c1)OCCCc1c(C(=O)O)n(C)c3c-2c(Cl)ccc13 [AZD5991] (first compound max 1 µM, 7x7, partner max 1 µM) | 0.191 | 0.174 | 0.298 | 0.197 | 0.711 | -0.0305 | -0.0235 | -0.0279 | -0.0416 | -0.0544 | -0.0681 | -0.0214 | -0.0727 | -0.0595 | -0.0338 | -0.031 | -0.0699 | -0.0383 | -0.0308 |
| Cn1cnc2c(F)c(Nc3ccc(Br)cc3Cl)c(C(=O)NOCCO)cc21 [Selumetinib] + C=CCn1c(=O)c2cnc(Nc3ccc(N4CCN(C)CC4)cc3)nc2n1-c1cccc(C(C)(C)O)n1 [AZD1775] (first compound max 10 µM, partner max 1 µM) | 0.731 | 0.58 | 0.739 | 0.503 | 0.587 | -0.0258 | 0.0121 | -0.0768 | -0.0824 | -0.0128 | 0.0043 | -0.0678 | -0.0963 | -0.0632 | -0.056 | -0.0195 | 0.0655 | 0.0445 | 0.0437 |
| Cn1cnc2c(F)c(Nc3ccc(Br)cc3Cl)c(C(=O)NOCCO)cc21 [Selumetinib] + CC(C)n1c(=O)n(C)c2cnc3cc(F)c(-c4ccc(OCCCN5CCCCC5)nc4)cc3c21 [AZD1390] (first compound max 10 µM, 7x7, partner max 0.3 µM) | 0.115 | 0.153 | 0.13 | 0.402 | 0.307 | -0.0174 | -0.0378 | -0.0306 | 0.0143 | -0.0432 | 0.021 | 0.0116 | -0.0769 | -0.0304 | -0.0112 | -0.0172 | 0.0043 | 0.0053 | 0.0034 |
| Cn1cnc2c(F)c(Nc3ccc(Br)cc3Cl)c(C(=O)NOCCO)cc21 [Selumetinib] + CCN(CCO)CCCOc1ccc2c(Nc3cc(CC(=O)Nc4cccc(F)c4)[nH]n3)ncnc2c1 [AZD2811] (first compound max 10 µM, 7x7, partner max 1 µM) | 0.405 | 0.328 | 0.306 | 0.495 | 0.392 | 0.0022 | 0.0031 | -0.0748 | -0.0201 | -0.0222 | -0.0864 | 0.0275 | -0.0305 | -0.0426 | -0.0193 | -0.0043 | 0.0087 | 0.0789 | -0.0001 |
| Cn1cnc2c(F)c(Nc3ccc(Br)cc3Cl)c(C(=O)NOCCO)cc21 [Selumetinib] + C[C@@H]1COCCN1C2=NC(=NC(=C2)C3(CC3)[S@](=N)(=O)C)C4=C5C=CNC5=NC=C4 [AZD6738] (first compound max 10 µM, 7x7, partner max 10 µM) | 0.601 | 0.801 | 0.672 | 0.398 | 0.787 | -0.0114 | -0.0312 | -0.0706 | 0.0042 | -0.036 | 0.0628 | -0.001 | -0.0064 | -0.028 | -0.0029 | -0.0706 | 0.0428 | 0.0218 | 0.0135 |

Reference: the supplement of paper PMC11061612
